The text below walks through data of ChEMBL document CHEMBL5338810, “Targeting Pancreatic Cancer with Novel Plumbagin Derivatives: Design, Synthesis, Molecular Mechanism, In Vitro and In Vivo Evaluation” (J Med Chem, 2023).

Data set [1] has as its system PANC-1. The experiment in a line: Preferential cytotoxic activity against human PANC-1 cells in nutrient-deprived medium assessed as reduction in cell viability incubated for 24 hrs by WST-8 cell counting analysis. It is filed as functional.
Data set [2] has as its system PANC-1. The experiment in a line: Cytotoxicity against human PANC-1 cells in Dulbecco's modified Eagle's medium assessed as reduction in cell viability incubated for 24 hrs by WST-8 cell counting analysis. As to conditions: PANC-1, 24 h. It counts as functional, cell-based.
A short description of data set [3]: Selectivity ratio, ratio of IC50 for cytotoxicity against human PANC-1 cells in Dulbecco's modified Eagle's medium to PC50 for preferential cytotoxic activity against human PANC-1 cells in nutrient-deprived medium. It counts as functional.
Data set [4] relates to MIA PaCa-2. The experiment in a line: Antitumor activity against human MIA PaCa-2 cells xenografted in athymic BALB/c-nu mouse assessed as reduction in mean tumor volume at 250 ug, ip administered 5 times per week for 4 weeks and measured on day 18 (reference value: 447 mm3). It counts as functional. As to conditions: dose 250 µg.
In data set [5] the test system is PANC-1. Briefly: Disruption of plasma membrane integrity in human PANC-1 cells in nutrient-deprived medium assessed as rounded cell morphology by measuring increase in red fluorescence at 1 uM incubated for 24 hrs by dual fluorescent staining based microscopic analysis. It counts as functional.
Data set [6] in a line: Toxicity in athymic BALB/c-nu mouse xenografted with human MIA PaCa-2 cells assessed as changes in abdominal organs at 50 to 250 ug, ip administered 5 times per week for 4 weeks. The note with it: in vivo, 672 h, dose 50-250 µg. It counts as organism-based. A general note: In xenograft studies the graft and the host belong to different species.
Data set [7] has as its system MIA PaCa-2. Briefly: Antitumor activity against human MIA PaCa-2 cells xenografted in athymic BALB/c-nu mouse assessed as reduction in mean tumor volume at 50 ug, ip administered 5 times per week for 4 weeks and measured on day 32 (reference value: 1642 mm3). It is filed as functional. The note with it: dose 50 µg.
Data set [8] can be described thus: Inhibition of PI3K/Akt/mTOR signaling pathway in human PANC-1 cells in nutrient-deprived medium at 0.5 to 10 uM by Western blotting analysis. The note with it: dose 0.5-10 µM, time 3-6 hrs, TDE = time-dependent effect. It counts as cell-based. In general terms: In western blotting, separated proteins are transferred to a membrane and probed.
For data set [9], the system named is PANC-1. The experiment in a line: Disruption of plasma membrane integrity in human PANC-1 cells in nutrient-deprived medium assessed as rupture of the cell membrane by measuring increase in red fluorescence at 1 uM incubated for 24 hrs by dual fluorescent staining based microscopic analysis. It counts as functional.
A short description of data set [10]: Inhibition of PI3K/Akt/mTOR signaling pathway in human PANC-1 cells in nutrient-deprived medium assessed as redution in Akt phosphorylation at 0.5 to 10 uM incubated for 3 hrs by Western blotting analysis. It counts as cell-based. As to conditions: dose 0.5-10 µM.
Data set [11] in a line: Inhibition of PI3K/Akt/mTOR signaling pathway in human PANC-1 cells in nutrient-deprived medium incubated for 3 to 6 hrs by Western blotting analysis. It is filed as cell-based. The note with it: dose 0.5-10 µM, time 3-6 hrs.
The nature of data set [12]: Toxicity in athymic BALB/c-nu mouse xenografted with human MIA PaCa-2 cells assessed as survival at 50 to 250 ug, ip administered 5 times per week for 4 weeks. It counts as organism-based. As to conditions: in vivo, 672 h, dose 50-250 µg.
The subject of data set [13] is MIA PaCa-2. The experiment in a line: Antitumor activity against human MIA PaCa-2 cells xenografted in athymic BALB/c-nu mouse assessed as reduction in average mean wet weight at 50 ug, ip administered 5 times per week for 4 weeks and measured on day 32 (reference value: 465.4 mg). It counts as functional. As to conditions: dose 50 µg.
A short description of data set [14]: Toxicity in athymic BALB/c-nu mouse xenografted with human MIA PaCa-2 cells assessed as changes in body weight at 50 to 250 ug, ip administered 5 times per week for 4 weeks and measured twice weekly. It counts as organism-based. The note with it: in vivo, 672 h, dose 50-250 µg.
Data set [15] concerns MIA PaCa-2. The experiment in a line: Antitumor activity against human MIA PaCa-2 cells xenografted in athymic BALB/c-nu mouse assessed as reduction in mean tumor volume at 50 ug, ip administered 5 times per week for 4 weeks and measured on day 18 (reference value: 447 mm3). The note with it: dose 50 µg. It is filed as functional.
Data set [16] has as its system MIA PaCa-2. The experiment in a line: Antitumor activity against human MIA PaCa-2 cells xenografted in athymic BALB/c-nu mouse assessed as reduction in average mean wet weight at 250 ug, ip administered 5 times per week for 4 weeks and measured on day 32 (reference value: 465.4 mg). It is filed as functional. The note with it: dose 250 µg.
In data set [17] the test system is MIA PaCa-2. Briefly: Antitumor activity against human MIA PaCa-2 cells xenografted in athymic BALB/c-nu mouse assessed as reduction in blood vessels at 50 to 250 ug, ip administered 5 times per week for 4 weeks. It counts as functional, organism-based. The note with it: dose 50-250 µg.
The subject of data set [18] is MIA PaCa-2. Briefly: Antitumor activity against human MIA PaCa-2 cells xenografted in athymic BALB/c-nu mouse assessed as changes in gross appearance of tumor at 50 to 250 ug, ip administered 5 times per week for 4 weeks. It counts as functional, organism-based. The note with it: dose 50-250 µg.
Data set [19] concerns PANC-1. Briefly: Disruption of plasma membrane integrity in human PANC-1 cells in nutrient-deprived medium assessed as membrane blebs by measuring increase in red fluorescence at 1 uM incubated for 24 hrs by dual fluorescent staining based microscopic analysis. It counts as functional, cell-based.
The test system of data set [20] is MIA PaCa-2. The experiment in a line: Antitumor activity against human MIA PaCa-2 cells xenografted in athymic BALB/c-nu mouse assessed as reduction in mean tumor volume at 250 ug, ip administered 5 times per week for 4 weeks and measured on day 32 (reference value: 1642 mm3). It is filed as functional. The note with it: dose 250 µg.
Data set [21] deals with PANC-1. Briefly: Disruption of plasma membrane integrity in human PANC-1 cells in nutrient-deprived medium assessed as leakage of cellular contents by measuring increase in red fluorescence at 1 uM incubated for 24 hrs by dual fluorescent staining based microscopic analysis. It is filed as functional, cell-based.

Active and inactive are the calls of the source. The calls are words filed in the database; no cut-off is given here.

The term IC50 denotes the concentration that inhibits the measured activity by half. In the case of `O=C1C=C(CC2CCCCC2)C(=O)c2ccccc21`, in [1], the PC50 came out at 0.96 µM. Further, the IC50 in data set [2] turned out to be 66.9 µM. The Ratio in data set [3] amounted to 69.9.
For `O=C1C(CC2CCCCCC2)=CC(=O)c2c(O)cccc21` the same measures were 0.78 µM, 4.22 µM and 5.41.
For `CCC1=CC(=O)c2cccc(O)c2C1=O` the same measures were 1.05 µM, 8.56 µM and 8.2.
For `CC(C)CC1=CC(=O)c2c(O)cccc2C1=O` the same measures were 0.39 µM, 12.9 µM and 33.1.
In the case of `O=C1C(CC2CCCCC2)=CC(=O)c2c(O)cccc21`, the Activity in [4] is on record as 166 mm3; in data set [6] it was “Non-Toxic”; in data set [7], 763 mm3; in data set [12], “Non-Toxic”; in [13], 205.8 mg; in data set [14], “Non-Toxic”. Also, the Activity was 210 mm3 in data set [15], 107.6 mg in data set [16] and 446 mm3 in [20]. Besides, the result in data set [5], in [9], in [17], in data set [18], in [19] and in [21] was Active. Also, the inhibition entry in data set [8] was “Tde”; in data set [11] it was “Dose-Dependent Effect”. Besides, the PC50 in [1] worked out at 0.11 µM. Also, the inhibition result in [10] is “Active”. Besides, the IC50 in [2] came out at 47.2 µM. In [3], the Ratio is given as 429.
Regarding `CCCC1=CC(=O)c2c(O)cccc2C1=O`, the PC50 in data set [1] was 0.45 µM. In addition, the 50% inhibitory concentration (IC50) in data set [2] was 15.6 µM. For the same compound, in data set [3], the Ratio was found to be 34.7.
For `CCC1=CC(=O)c2ccccc2C1=O` the same measures were 1.2 µM, 39.7 µM and 33.1.
For `Cc1ccc(CC2=CC(=O)c3ccccc3C2=O)cc1` the same measures were 4.67 µM, 76.2 µM and 16.3.
Regarding `O=C1C=C(CC2CCCCC2)C(=O)c2c(O)cccc21`, in data set [1], the PC50 stood at 0.74 µM. The IC50 in [2] was found to be 31.9 µM. For the same compound, the Ratio in data set [3] was 42.9.
For `CCC1=CC(=O)c2c(O)cccc2C1=O` the same measures were 1.46 µM, 31.6 µM and 21.6.
On to `O=C1C=C(Cc2cccc(Cl)c2)C(=O)c2ccccc21`, for which the PC50 in [1] came out at 2.84 µM. For the same compound, in data set [2], the IC50 is 46.7 µM. In data set [3], the Ratio was 16.4.
For `O=C1C(CC2CCCC2)=CC(=O)c2c(O)cccc21` the same measures were 0.4 µM, 8.4 µM and 21.
For the compound `CCCC1=CC(=O)c2ccccc2C1=O`, the PC50 in data set [1] was determined as 3.55 µM. In data set [2], the IC50 is 39.1 µM. Besides, the Ratio in data set [3] is listed as 11.
The like results for `CC1=CC(=O)c2c(O)cccc2C1=O` [PLUMBAGIN] were, in that order, 1.54 µM, 23.7 µM and 15.4.
The like results for `CCC1=CC(=O)c2c(OC)cccc2C1=O` were, in that order, 21.2 µM, 103 µM and 4.86.
